Assay results as given in publication PMC8348983 (International Journal of Molecular Sciences, 2021).
Read-outs that look alike come from different tables or passages of the source.

Key:
Assay type in all cases: biochemical
MAO-A = biological target: T1, MAO-A (Homo sapiens, UniProt P21397); assay: MAO-A inhibition assay
T1 construct: purchased Merck, Germany
T1 sequence (P21397 1-527): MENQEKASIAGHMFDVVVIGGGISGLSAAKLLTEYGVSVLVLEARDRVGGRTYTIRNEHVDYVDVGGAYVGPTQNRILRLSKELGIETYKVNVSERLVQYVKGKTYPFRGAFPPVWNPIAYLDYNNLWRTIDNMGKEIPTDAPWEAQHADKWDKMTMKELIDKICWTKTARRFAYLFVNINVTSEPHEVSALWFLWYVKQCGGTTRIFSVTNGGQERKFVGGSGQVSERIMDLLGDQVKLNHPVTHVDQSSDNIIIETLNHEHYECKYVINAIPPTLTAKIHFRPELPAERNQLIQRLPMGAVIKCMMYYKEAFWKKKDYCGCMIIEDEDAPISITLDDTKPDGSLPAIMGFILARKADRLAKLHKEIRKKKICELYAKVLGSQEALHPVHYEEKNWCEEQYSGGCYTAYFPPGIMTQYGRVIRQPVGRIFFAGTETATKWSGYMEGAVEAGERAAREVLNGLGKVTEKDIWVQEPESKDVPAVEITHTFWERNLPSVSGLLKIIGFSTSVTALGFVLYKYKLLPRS
Description: Since monoamine oxidase (MAO; EC 1.4.3.4) inhibitors are considered as neuroprotective agents, compound 6 was screened at two concentrations (1 and 10 µM) for its inhibition potential against both isoforms of human MAOs. […]; MAO inhibition assay was performed as previously described. Supplementary Materials provides details of this assay. […]
The reaction mixture contains 2.5mg/mL MAO -A or 6.25mg/mLMAO-B enzyme (Merck, Germany) and inhibitor in final concentrations of […] in 50 mM potassiumphosphate buffer with 20% (v/v) glycerol (pH 7.5). […] The sample was then centrifuged (16.500 g) for10 min.The deamination product of kynuramine formed during the enzymatic reaction 4-hydroxyquinoline (4-HQ) was determined by UHPLC-MS on a Zorbax RRHD Eclipse plus C18 column (2.1 mm x 50 mm, […]) (Agilent Technologies, USA), by using a 6470 Series Triple Quadrupole mass spectrometer (Agilent Technologies, USA) as detector with electrospray ionisation – positive ion mode. […]
0.1% formic acid in water; (B) 0.1% formic acid in acetonitrile. IC 50of individual compounds were determined by nonlinear regression usingGraphPad Prism 8.0 (GraphPad Software, USA).

hBuChE = biological target: T2, hBuChE (Homo sapiens, UniProt P06276); assay: Kinetic study of hBuChE inhibition
T2 construct: was used as a source of BChE and was prepared from heparinized human blood; from tissue; host or cells: human plasma from heparinized human blood
Description: Compound 6, the derivative with the most robust inhibitory activity, was subjected to enzyme kinetics analysis to determine the mode of hBuChE inhibition. Inhibition kinetics were elucidated from velocity curves that were measured at several concentrations of substrate butyrylthiocholine and test compound. The type of enzyme inhibition and corresponding kinetic parameters (Ki and Ki′) were determined by nonlinear regression analysis. Results for each type of model of inhibition (competitive, non-competitive, uncompetitive, and mixed) were compared by the sum-of-squares F-test. […].
Kinetic studies employed the same procedure that was previously described. Supplementary Materials provides details of this assay.
Biological assays in detail hAChE and hBuChE Inhibition Assay
The inhibitory activities of prepared compounds and standards against human recombinant AChE (E.C.
3.1.1.7) and human plasma BChE (E.C. 3.1.1.8) were determined using modified Ellman’s method […]
cholinesterase activity). Human recombinant AChE, phosphate buffer (PB, pH = 7.4), 5,5’ -dithio-bis(2-nitrobenzoic) acid (Ellman’s reagent, DTNB), acetylthiocholine (ATCh), butyrylthiocholine (BTCh), and other used compounds were purchased from Sigma-Aldrich (Prague, Czech Republic). […]
The solutions of she corresponding cholinesterase in PB were prepared up to the final activity 0.002 U/µL. […] The increase of absorbance was measured at 412 nm using Multimode microplate reader Synergy 2 (BioTek Inc., Winooski, VT, USA). For the calculation of the resulting measured activity (the percentage of inhibition I) following formula was used: […]
where ΔAi indicates absorbance change provided by adequate enzyme exposed to corresponding inhibitor and ΔA0 indicates absorbance change when a solution of PB was added instead of a solution of inhibitor. […]
The kinetic study hBuChE was performed by using above mentioned modified Ellman’s method. The values of Vmax and Km of the Michaelis-Menten kinetics as well as the values of Ki and Ki’ were calculated by nonlinear regression from the substrate velocity curves. […]

human recombinant AChE = human recombinant AChE (Homo sapiens, UniProt P22303); assay: biochemical
human recombinant AChE, sequence (P22303 32-614): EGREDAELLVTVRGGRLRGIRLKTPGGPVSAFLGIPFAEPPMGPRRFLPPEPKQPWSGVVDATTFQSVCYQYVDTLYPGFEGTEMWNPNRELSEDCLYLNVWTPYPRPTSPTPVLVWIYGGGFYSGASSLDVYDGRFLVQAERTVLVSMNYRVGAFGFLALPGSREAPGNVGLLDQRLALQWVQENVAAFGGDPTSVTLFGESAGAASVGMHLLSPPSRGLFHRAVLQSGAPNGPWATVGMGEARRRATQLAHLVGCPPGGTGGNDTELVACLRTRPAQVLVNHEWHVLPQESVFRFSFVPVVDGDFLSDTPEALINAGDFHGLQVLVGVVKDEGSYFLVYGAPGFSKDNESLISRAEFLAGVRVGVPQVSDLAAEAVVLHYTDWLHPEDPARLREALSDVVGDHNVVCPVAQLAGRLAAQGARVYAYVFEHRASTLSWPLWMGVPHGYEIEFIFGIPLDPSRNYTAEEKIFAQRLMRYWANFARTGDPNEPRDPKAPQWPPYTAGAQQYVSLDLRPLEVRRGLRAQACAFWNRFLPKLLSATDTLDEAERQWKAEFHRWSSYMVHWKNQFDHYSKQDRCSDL

human plasma BChE = biological target: T3, human plasma BChE (Homo sapiens, UniProt P06276); assay: biochemical
T3 construct: was used as a source of BChE and was prepared from heparinized human blood; from tissue; host or cells: human plasma from heparinized human blood
T3 sequence (P06276 29-602): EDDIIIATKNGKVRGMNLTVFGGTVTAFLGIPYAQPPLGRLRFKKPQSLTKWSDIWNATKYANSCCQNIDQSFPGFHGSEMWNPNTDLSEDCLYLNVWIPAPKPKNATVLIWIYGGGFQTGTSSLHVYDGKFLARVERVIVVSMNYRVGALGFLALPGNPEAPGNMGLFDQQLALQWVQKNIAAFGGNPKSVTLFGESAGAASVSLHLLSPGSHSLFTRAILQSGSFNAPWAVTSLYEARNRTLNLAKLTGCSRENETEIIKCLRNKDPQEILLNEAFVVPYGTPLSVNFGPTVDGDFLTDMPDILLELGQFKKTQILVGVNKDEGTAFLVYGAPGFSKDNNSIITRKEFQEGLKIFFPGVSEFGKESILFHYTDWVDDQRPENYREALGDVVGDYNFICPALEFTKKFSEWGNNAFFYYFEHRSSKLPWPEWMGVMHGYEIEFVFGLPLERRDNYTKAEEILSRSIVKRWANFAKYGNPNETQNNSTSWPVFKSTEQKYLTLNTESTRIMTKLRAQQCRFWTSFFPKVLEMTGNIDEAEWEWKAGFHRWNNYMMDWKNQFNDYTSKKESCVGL

With C=CCOc1ccc(CCN(CC=C)Cc2ccc(OC)c(OCc3ccccc3)c2)cc1 [Compound 6, N-allyl-N-(3-benzyloxy-4-methoxybenzyl)-2-(4-allyloxyphenyl)ethan-1-amine] the IC50 (MAO-A) was > 10000 nM, the “residual activity of MAO-A” value (MAO-A; 1 and 10 µM) was “higher than 68%” and the “Ki′” value (hBuChE; hBuChE, enzyme-substrate complex, nonlinear regression) was 347 ± 79 nM. The Ki (hBuChE; hBuChE, substrate butyrylthiocholine, nonlinear regression) was 60.3 ± 11.6 nM, the “type of hBuChE inhibition” value (hBuChE; sum-of-squares F-test, p < 0.05, Lineweaver–Burk plot) was “mixed type of inhibition” and the IC50 (human recombinant AChE; mean ± SEM of three independent measurements, each in triplicate, read-out: IC50, hAChE ± SEM) was > 100000 nM. It also gave an inhibition at 100 µM (human recombinant AChE; tested at 100 µM compound concentration, read-out: %Inhibition hAChE ± SEM) of 10.1 ± 0.6%, an IC50 (human plasma BChE; mean ± SEM of three independent measurements, each in triplicate, read-out: IC50, hBuChE ± SEM) of 70 ± 10 nM and an IC50 (human plasma BChE; read-out: IC50, hBuChE) of 72 nM. The inhibition at 100 µM (human plasma BChE; tested at 100 µM compound concentration, read-out: % Inhibition hBuChE ± SEM) was 98.6 ± 0.9%.
